# Measured values reported in patent US20220106289A1, “NLRP3 INHIBITORS” (INFLAZOME LIMITED, priority 2018, published 2022).
# Where a name gives a salt, the structure may show the parent alone. Read-outs that look alike come from different tables or passages of the source.
# Assays:
# [1] = PK in rats, oral administration; type: in vivo; details: male, Sprague-Dawley; for AUC / Cmax / Tmax / half-life: rat plasma; for CL/F / bioavailability: plasma, rat
# Description: (§1) Pharmacokinetic parameters were determined in male Sprague Dawley rats (Charles River, UK, 250-300 g; or Vital River Laboratory Animal Technology Co Ltd, Beijing, China, 7-9 weeks old). Animals were individually housed during the study and maintained under a 12 h light/dark cycle. Animals had free access to food and water, except that orally dosed animals were food deprived overnight prior to the study. For intravenous administration, compounds were formulated as a solution in DMSO:PBS [10:90] in 2 mL/kg dosing volume and administered via tail vein. For oral administration, compounds were formulated as a solution in DMSO:water [10:90] in 5 mL/kg dosing volume and administered orally. Serial blood samples (about 200-230 μL) were taken from each animal at each of 8 time-points post dose (0.083, 0.25, 0.5, 1, 2, 4, 8 and 24 h). Samples were held on ice for no longer than 30 minutes before centrifugation (10,000 rpm (8,385 g) for 3 minutes; or 5,696 rpm (3,000 g) for 15 minutes) for plasma generation. Plasma was frozen on dry ice prior to bioanalysis. PK parameters were generated from LC-MS/MS data using Dotmatics or Phoenix WinNonlin 6.3 software.
# [2] = target: T1, NLRP3 (Homo sapiens, UniProt Q96P20); assay: THP-1 cells pyroptosis assay (LPS + nigericin, resazurin read-out); type: cell-based; design: Seed THP-1 cells (25,000 cells/well) containing 1.0 μg/ml LPS; host or cells: THP-1 cells; details: NLRP3 inhibitory activity, 1 μg/ml LPS, 5 μM nigericin
# Summary of the method: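 THP-1 cells in serum-free RPMI were primed with 1 μg/ml LPS and incubated 3 h at 37° C with compound, then given 5 μM nigericin for 1 h. After supernatant removal, viability was read by 100 μM resazurin over 1-2 h at 37° C.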
# [3] = target: T1, NLRP3; assay: Human whole blood IL-1β release assay (LPS + nigericin, AlphaLisa); type: cell-based; design: Human whole blood in Li-heparin tubes was obtained from healthy donors; from tissue; host or cells: human whole blood from healthy donors; details: NLRP3 inhibitory activity, 1 μg/ml LPS, 10 μM nigericin, read-out: HWB IC50
# Description: For systemic delivery, the ability to inhibit NLRP3 when the compounds are present within the bloodstream is of great importance. For this reason, the NLRP3 inhibitory activity of a number of compounds in human whole blood was investigated in accordance with the following protocol. Human whole blood in Li-heparin tubes was obtained from healthy donors from a volunteer donor panel. • 1. […] Incubate for 3 hrs at 37° C., 5% CO2 • 4. Add 10 μl nigericin (Sigma #N7143) (10 μM FAC) to all wells • 5. Incubate for 1 hr at 37° C., 5% CO2 • 6. At the end of the incubation period, spin plates at 300×g for 5 mins to pellet cells and remove 20 μl of supernatant and add to 96-well v-bottom plates for IL-1β analysis (note: these plates containing the supernatants can be stored at -80° C. to be analysed at a later date) • 7. IL-1β was measured according to the manufacturer protocol (Perkin Elmer-AlphaLisa IL-1 Kit A[…]-5000) • 8.
# [4] = PK in rats, intravenous administration; type: in vivo; details: male, Sprague-Dawley; for AUC / half-life: rat plasma; for clearance / Vd: plasma, rat; for Vd: read-out: Vdss
# Description: as §1
# T1 sequence (Q96P20 whole entry): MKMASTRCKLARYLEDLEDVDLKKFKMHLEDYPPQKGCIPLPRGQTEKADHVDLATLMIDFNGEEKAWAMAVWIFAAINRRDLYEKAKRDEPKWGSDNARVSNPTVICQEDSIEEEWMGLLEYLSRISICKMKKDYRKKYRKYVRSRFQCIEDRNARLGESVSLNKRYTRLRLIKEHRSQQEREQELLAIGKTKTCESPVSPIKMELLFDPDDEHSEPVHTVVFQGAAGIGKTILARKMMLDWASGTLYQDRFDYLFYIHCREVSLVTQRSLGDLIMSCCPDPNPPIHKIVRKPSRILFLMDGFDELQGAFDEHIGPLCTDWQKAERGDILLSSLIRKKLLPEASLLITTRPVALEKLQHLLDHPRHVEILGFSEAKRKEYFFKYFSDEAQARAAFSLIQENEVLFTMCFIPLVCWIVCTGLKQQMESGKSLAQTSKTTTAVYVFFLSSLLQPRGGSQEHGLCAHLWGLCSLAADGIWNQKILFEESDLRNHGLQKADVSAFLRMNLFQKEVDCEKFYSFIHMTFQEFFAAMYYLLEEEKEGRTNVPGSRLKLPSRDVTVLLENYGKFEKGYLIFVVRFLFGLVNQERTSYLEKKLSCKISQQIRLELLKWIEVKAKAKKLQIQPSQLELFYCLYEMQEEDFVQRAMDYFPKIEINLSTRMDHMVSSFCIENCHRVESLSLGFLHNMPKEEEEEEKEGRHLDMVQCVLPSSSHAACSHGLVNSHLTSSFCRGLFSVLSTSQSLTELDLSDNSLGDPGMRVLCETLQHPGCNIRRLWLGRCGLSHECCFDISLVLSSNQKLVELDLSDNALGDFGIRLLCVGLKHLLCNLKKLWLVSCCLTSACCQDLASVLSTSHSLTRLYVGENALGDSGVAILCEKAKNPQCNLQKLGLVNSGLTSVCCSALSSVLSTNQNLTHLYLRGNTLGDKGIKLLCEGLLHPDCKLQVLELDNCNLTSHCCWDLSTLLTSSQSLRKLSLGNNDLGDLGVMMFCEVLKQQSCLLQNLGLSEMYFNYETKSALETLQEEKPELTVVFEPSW
Structure (SMILES),AUC ([1]; 3 mg/kg) [ng·h/mL],Cmax ([1]; 3 mg/kg) [ng/mL],Tmax ([1]; 3 mg/kg) [h],half-life ([1]; 3 mg/kg) [h],CL/F ([1]; 3 mg/kg) [mL/min/kg],IC50 [2] [nM],IC50 [3] [nM],other results
"CCn1ccc(S(=O)(=O)NC(=O)Nc2c3c(cc4c2CCC4)CCC3)n1 [Example 45, 1-Ethyl-N-((1,2,3,5,6,7-hexahydro-s-indacen-4-yl)carbamoyl)-1H-pyrazole-3-sulfonamide, sodium salt]",61600,7900,2,2.5,0.8,< 250,1000 to 5000,
"COC(C)(C)c1cc(S(=O)(=O)NC(=O)Nc2c3c(cc4c2CCC4)CCC3)nn1C [Example 39, N-((1,2,3,5,6,7-Hexahydro-s-indacen-4-yl)carbamoyl)-5-(2-methoxypropan-2-yl)-1-methyl-1H-pyrazole-3-sulfonamide]",3920,1370,0.83,2.2,13,< 250,500 to 1000,AUC ([4]; 3 mg/kg): 3840 ng·h/mL; half-life ([4]; 3 mg/kg): 4 h; clearance ([4]; 3 mg/kg): 13.1 mL/min/kg; Vd ([4]; 3 mg/kg): 0.9 L/kg; bioavailability ([1]; 3 mg/kg): > 100%
"COC(C)(C)c1cc(S(=O)(=O)NC(=O)Nc2c(C(C)C)cc(Cl)cc2C(C)C)nn1C [Example 83, N-((4-Chloro-2,6-diisopropylphenyl)carbamoyl)-5-(2-methoxypropan-2-yl)-1-methyl-1H-pyrazole-3-sulfonamide]",,,,,,< 250,1000 to 5000,AUC ([4]; 1 mg/kg): 1130 ng·h/mL; half-life ([4]; 1 mg/kg): 3.9 h; clearance ([4]; 1 mg/kg): 14.8 mL/min/kg; Vd ([4]; 1 mg/kg): 2.23 L/kg; AUC ([1]; 1.3 mg/kg): 2750 ng·h/mL; Cmax ([1]; 1.3 mg/kg): 468 ng/mL; Tmax ([1]; 1.3 mg/kg): 3.17 h; half-life ([1]; 1.3 mg/kg): 3.7 h; CL/F ([1]; 1.3 mg/kg): 8.5 mL/min/kg; bioavailability ([1]; 1.3 mg/kg): > 100%
